From ChEMBL document CHEMBL1201862, “PubChem BioAssay data set” (2004)
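Cultured in 96-well plates, cells were exposed to test compound for 48 hours across five concentrations. GI50: concentration for 50% inhibition of growth.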 Active and inactive are the calls of the source. Cut-off read from the data, not from the text of the source: active = GI50 up to about 1.1 µM and inactive = higher.

Experiments:
Assay in all cases: NCI anticancer screen, dose series, 48 h
[1] = tested on: Malme-3M
[2] = tested on: SK-MEL-2
[3] = tested on: U-251
[4] = tested on: NCI/ADR-RES
[5] = tested on: MDA-MB-231
[6] = tested on: KM12
[7] = tested on: MDA-MB-435
[8] = tested on: T47D
[9] = tested on: SR
[10] = tested on: EKVX
[11] = tested on: HOP-92
[12] = tested on: RXF 393
[13] = tested on: OVCAR-5
[14] = tested on: UO-31
[15] = tested on: CCRF-CEM
[16] = tested on: CAKI-1
[17] = tested on: DU-145
[18] = tested on: SNB-19
[19] = tested on: HCT-116
[20] = tested on: MDA-N

| SMILES | GI50 [1] | GI50 [2] | GI50 [3] | GI50 [4] | GI50 [5] | GI50 [6] | GI50 [7] | GI50 [8] | GI50 [9] | GI50 [10] | GI50 [11] | GI50 [12] | GI50 [13] | GI50 [14] | GI50 [15] | GI50 [16] | GI50 [17] | GI50 [18] | GI50 [19] | GI50 [20] |
| --- | --- | --- | --- | --- | --- | --- | --- | --- | --- | --- | --- | --- | --- | --- | --- | --- | --- | --- | --- | --- |
| CN(C)CCNC(=O)c1ccc(NCCCN(C)CCCNc2ccc(C(=O)NCCN(C)C)c3nc4ccccc4c(O)c23)c2c(O)c3ccccc3nc12 | < 0.0153 µM (active) | < 0.0211 µM (active) | < 0.01 µM (active) | 1.8 µM (inactive) | 0.111 µM (active) | < 0.0116 µM (active) | 0.0101 µM (active) | 0.171 µM (active) | < 0.01 µM (active) | 0.115 µM (active) | 0.234 µM (active) | 0.146 µM (active) | 0.0422 µM (active) | 0.326 µM (active) | < 0.012 µM (active) | 0.501 µM (active) | < 0.0114 µM (active) | < 0.01 µM (active) | < 0.01 µM (active) |  |
| O=C1/C(=C/c2ccccc2)N=C2Sc3c([nH]cnc3=O)N12 | > 100 µM (inactive) | > 100 µM (inactive) | > 100 µM (inactive) | > 100 µM (inactive) | > 100 µM (inactive) | > 100 µM (inactive) | 60 µM (inactive) | > 100 µM (inactive) | 25.1 µM (inactive) | > 100 µM (inactive) | > 100 µM (inactive) | > 100 µM (inactive) | > 100 µM (inactive) | > 100 µM (inactive) | > 100 µM (inactive) | > 100 µM (inactive) | > 100 µM (inactive) | > 100 µM (inactive) | > 100 µM (inactive) |  |
| Oc1ccc(/C=N/CC2CCCN3CCCCC23)cc1 (stereo unspecified) | 24.7 µM (inactive) | 19.5 µM (inactive) | 17.6 µM (inactive) | 46.8 µM (inactive) | 28.8 µM (inactive) | 16.4 µM (inactive) | 14.1 µM (inactive) | 31.3 µM (inactive) |  | 27.5 µM (inactive) | 24.2 µM (inactive) | 20 µM (inactive) | 31.3 µM (inactive) | 23.1 µM (inactive) |  | 17.8 µM (inactive) | 16 µM (inactive) | 25.3 µM (inactive) | 16.7 µM (inactive) | 18.4 µM (inactive) |
| Cc1ccccc1NC(=O)C(=O)CC(=O)c1sc(Nc2ccccc2[N+](=O)[O-])nc1C |  | 56.6 µM (inactive) | 30.3 µM (inactive) | 41.2 µM (inactive) | 17.3 µM (inactive) | 47.5 µM (inactive) | 29 µM (inactive) | 27.2 µM (inactive) |  | 34 µM (inactive) | 29.3 µM (inactive) | 26.4 µM (inactive) | 90.2 µM (inactive) | 10.4 µM (inactive) |  | 28.4 µM (inactive) | 50 µM (inactive) | 34.7 µM (inactive) | 29.7 µM (inactive) | 35.7 µM (inactive) |
| O=C1NC(=S)NC(=O)C1=C/C=C/c1ccc([N+](=O)[O-])cc1 | 9.66 µM (inactive) | 16.4 µM (inactive) | 4 µM (inactive) | 13.1 µM (inactive) | 18.2 µM (inactive) | 38 µM (inactive) | 10.4 µM (inactive) | 24.9 µM (inactive) |  | 17.9 µM (inactive) | 14.4 µM (inactive) | 13.1 µM (inactive) | 18.3 µM (inactive) | 18.3 µM (inactive) | 2.32 µM (inactive) | 15.2 µM (inactive) | 16.1 µM (inactive) | 17.1 µM (inactive) | 17.8 µM (inactive) | 8.71 µM (inactive) |
| CCOc1ccc(NCC2CC/C(=C\C=C\c3ccccc3)C2=O)cc1 (stereo unspecified) | 22 µM (inactive) | > 100 µM (inactive) | 18.8 µM (inactive) | 25.7 µM (inactive) | 9.14 µM (inactive) | 6.07 µM (inactive) | 12.2 µM (inactive) | 17.3 µM (inactive) | 4 µM (inactive) | 37.3 µM (inactive) | 16.1 µM (inactive) | 16.1 µM (inactive) | 21.5 µM (inactive) | 26.6 µM (inactive) | 6.75 µM (inactive) | 12.7 µM (inactive) | 33.2 µM (inactive) | 24 µM (inactive) | 6.98 µM (inactive) |  |
